pEC50, pIC50: −log10 of the molar value. Calls of active or inactive are those of the source.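 The calls were made as follows: active = compounds giving half or more protection of infected cells from virus-caused growth loss, again on retest; inactive = the rest.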 Some results are limits rather than exact numbers.

74 compounds from PubChem BioAssay AID179 (DTP/NCI, 2004) can be followed below.

The test system of this assay is CEM cells HIV-1 protection, formazan growth assay. The assay can be described thus: NCI AIDS Antiviral Assay. The following applies: for pIC50: measured here: growth of uninfected CEM cells. In outline: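 Human CEM cells, uninfected and HIV-1-infected, exposed to five drug concentrations; growth measured by soluble formazan assay and scored as percent protection from infection, with protecting compounds retested.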

One may read the pEC50 as the EC50 on a negative log10 scale, so that one unit is a factor of ten. In general, pIC50 refers to the IC50 on a negative log10 scale, so that one unit is a factor of ten. A lower pIC50 goes with a high IC50. Turning to `CSc1nc2c(n1-c1ccccc1)C(=O)C(OS(=O)(=O)c1ccccc1)C(=O)N2` (stereo not drawn), the pEC50 is less than 3.70 and the negative logarithm of the IC50 (pIC50) is less than 3.70.
`COc1ccc(N2C(=O)C3c4[nH]c5ccccc5c4C4CCCCCCCC4C3C2=O)cc1` (stereo not drawn): the pEC50 was less than 3.70 and the pIC50 is 4.09.
The matching figures for `O=C(NCCN1CCOCC1)c1cn2c(ccc3sc4ccccc4c(=O)c32)n1`: less than 3.70 and 5.45.
The corresponding values for `CC(C)(CO)C(O)C(=O)NCCCO` (stereo not drawn) are less than 3.70 and less than 3.70.
For the compound `COc1cccc2c1C(=O)OC2c1cccc2ccccc12` (stereo not drawn), the result was inactive.
Regarding `S=C(SSSC(=S)N(C1CCCCC1)C1CCCCC1)N(C1CCCCC1)C1CCCCC1`, the outcome was inactive.
Regarding `O=C1NC2(CCN(CCc3ccccc3)CC2)Oc2ccccc21`, the pEC50 was less than 3.70 and the pIC50 was 3.72.
Take `CC(=O)Nc1cccc2[nH]c3ccccc3c(=O)c12`: the outcome was inactive.
Turning to `CSc1nc(N)cc(C(F)(F)F)n1`, the pEC50 was less than 3.70 and the pIC50 is less than 3.70.
Turning to `C#C[C@H]1CCCCCC1O` (stereo partly drawn), the pEC50 was less than 2.74 and the pIC50 was 2.91.
The corresponding values for `O=C1C[C@@H](c2ccccc2)O[C@@H](c2ccccc2)C1` are less than 3.70 and 3.95.
The corresponding values for `C=CCc1cc(OC)c2c(c1)C(OC)CC(c1ccc(OC)c(OC)c1)O2` (stereo not drawn) are less than 3.60 and less than 3.60.
The corresponding values for `Nc1ncnc2c1ncn2[C@H]1[C@H](CO)[C@@H](CO)C1(F)F` are less than 3.70 and 3.81.
Regarding `N#CCN1CCN(CC#N)CCN(CC#N)CCN(CC#N)CC1`, the pEC50 was less than 3.70 and the negative logarithm of the IC50 (pIC50) is 4.55.
The matching figures for `Cc1ccc(S(=O)(=O)Nc2cccc3c(=O)[nH]cnc23)cc1`: less than 4.08 and 4.86.
The corresponding values for `C=CCNC(=S)N1CC(C)C(=O)Nc2ccccc21` (stereo not drawn) are less than 3.18 and less than 3.18.
The matching figures for `C#C[C@]1(O)CCC2C3CCc4cc(Oc5nc(F)nc(-n6c(C)nc7cc8ccccc8cc76)n5)ccc4C3CCC21C` (stereo partly drawn): less than 3.70 and 4.55.
As for `CC(=O)Nc1ccccc1/C(C#N)=C/c1ccccc1`, the pEC50 was less than 3.70 and the pIC50 is less than 3.70.
`COC(=S)C12CC3CC(CC(C3)C1)C2`: the result was inactive.
On to `O=C(C(c1ccccc1)c1ccccc1)C(O)(c1ccccc1)c1ccccc1`, for which the pEC50 was 4.51 and the pIC50 is 4.46.
In the case of `COc1cccc(N2C(=O)C3c4[nH]c5ccc(C)cc5c4C4CCC(C(C)(C)C)CC4C3C2=O)c1` (stereo not drawn), the pEC50 is less than 3.70 and the negative logarithm of the IC50 (pIC50) was 5.02.
Take `O=[N+]([O-])c1cc(S(=O)(=O)c2ccc(N(CCO)CCO)c([N+](=O)[O-])c2)ccc1N(CCO)CCO`: the pEC50 is less than 3.70 and the pIC50 is 4.45.
The corresponding values for `O=C(c1ccco1)C1CC(c2ccc3ccccc3c2O)=NN1c1ccc([N+](=O)[O-])cc1[N+](=O)[O-]` (stereo not drawn) are less than 3.70 and 4.80.
The matching figures for `C/C=C/C=C1\C=Cc2c(C(=O)OC)coc(=O)c21`: less than 3.70 and 4.45.
Take `N#Cc1nc(N)c(C#N)[nH]1`: the outcome was inactive.
For the compound `O=C1c2cccnc2S(=O)(=O)N1c1ccc([N+](=O)[O-])cc1`, the pEC50 was less than 3.70 and the pIC50 was 4.63.
The matching figures for `S=C1NCCN1C(=S)Nc1ccccc1`: less than 3.85 and less than 3.85.
`Nc1ncnc2c1N=CN(Oc1ccccc1)N2`: the result was inactive.
`C(=C(c1ccccc1)c1ccccc1)N1CCOCC1`: the pEC50 was less than 3.70 and the pIC50 was less than 3.70.
Consider `CO[C@]1(c2ccc([N+](=O)[O-])cc2)Oc2ccccc2C(=O)[C@@]1(Nc1ccc(C=O)cc1)OC`, for which the pEC50 was less than 3.70 and the pIC50 was 3.76.
As for `O=C1C(N=Nc2ccc(Br)cc2)Sc2nc3ccccc3n21` (stereo not drawn), the pEC50 is less than 3.70 and the pIC50 is less than 3.70.
As for `CC(C)OC(=S)Nc1ccc(Cl)c(/C=N/OC(C)(C)C)c1`, the pEC50 was less than 4.62 and the pIC50 is 4.63.
As to `O=C(O)c1c2ccccc2nc2[nH]c(=O)[nH]c(=O)c12`, the result was inactive and the pIC50 is 3.85.
Turning to `O=C(Nc1ccc(C2=NCCCN2)cc1)c1ccc(NC(=O)c2ccc(C3=NCCCN3)cc2)cc1`, the pEC50 is less than 3.70 and the pIC50 is 4.17.
The corresponding values for `O=C(NCO)NCOCn1c(=O)n(CO)c(=O)n(CO)c1=O` are less than 3.39 and 4.15.
The matching figures for `CN(C)CCC(O)(c1ccccc1)C(O)(CCN(C)C)c1ccccc1` (stereo not drawn): less than 4.14 and less than 4.14.
The matching figures for `CCOC(=O)C1(C(=O)OCC)CC=C(C)CC12C(=O)Nc1ccccc12` (stereo not drawn): less than 4.14 and less than 4.14.
As to `COC(=O)c1ncn(C2CCCCC2)c1O`, the pEC50 was less than 3.70 and the pIC50 was less than 3.70.
On to `COC(=O)/C(=C/c1ccc(OC)cc1)C(C(=O)O)=C(C)C`, for which the pEC50 is less than 3.06 and the pIC50 was 4.95.
The corresponding values for `Cc1c([N+](=O)[O-])c(=O)oc2ccc3c(=O)ccoc3c12` are less than 4.30 and 5.06.
Take `O=S1C(=c2ccc(=C3Sc4ccccc4S3)cc2)Sc2ccccc21` (stereo not drawn): the result was inactive.
For `CC(C(=O)O)c1ccc(-n2nnc3c(=O)[nH][nH]c(=O)c32)cc1` (stereo not drawn), the pEC50 was less than 3.70 and the pIC50 is less than 3.70.
As for `[N-]=[N+]=C(C(=O)OCC#CCOC(=O)C(=[N+]=[N-])S(=O)(=O)c1ccccc1)S(=O)(=O)c1ccccc1`, the pEC50 was less than 3.70 and the pIC50 is 3.87.
The matching figures for `CC(=O)c1ccc(NC(=O)C(=O)Nn2c(=S)[nH]c3ccccc3c2=O)cc1`: less than 4.03 and less than 4.03.
As for `O=c1[nH]c(=O)n(C2OC(CO)CC2F)cc1Cl` (stereo not drawn), the pEC50 is less than 3.73 and the pIC50 is less than 3.73.
`c1ccc(C2=NCCc3cc4c(cc32)OCO4)cc1`: the pEC50 is less than 3.70 and the pIC50 was 3.85.
The corresponding values for `CC(=O)Nc1ccc(C(=O)N2N=C(C)/C(=C/c3ccccc3O)C2=O)cc1` are less than 4.29 and less than 4.29.
As for `COc1ccc(N2C(=O)c3c4c(c5c([nH]c6ncccc65)c3C2=O)CCC(C(C)(C)C)C4)cc1` (stereo not drawn), the negative logarithm of the EC50 (pEC50) is 3.72 and the pIC50 is less than 3.70.
The corresponding values for `c1nc(SSc2ncnc3nc[nH]c23)c2[nH]cnc2n1` are less than 4.70 and 6.34.
The matching figures for `Cn1cc(NC(=O)Nc2cc(C(=O)Nc3cc(C(=O)Nc4ccc(P(=O)(O)O)c5cc(P(=O)(O)O)ccc45)n(C)c3)n(C)c2)cc1C(=O)Nc1cc(C(=O)Nc2ccc(P(=O)(O)O)c3cc(P(=O)(O)O)ccc23)n(C)c1`: less than 4.31 and 4.50.
As for `Cc1ccc(S(=O)(=O)[N-]C2C(=O)c3ccccc3C(=O)C2[n+]2cccc(C(N)=O)c2)cc1` (stereo not drawn), the pEC50 was less than 3.70 and the pIC50 was less than 3.70.
As for `N=C1N(/N=C/c2ccccn2)C(=Nc2ccccc2)C(=S)N1c1ccccc1`, the pEC50 is less than 3.70 and the pIC50 was 5.29.
In the case of `c1nn2cnnc2s1`, the result was inactive.
In the case of `NC(=O)N/N=C1/CCCC/C1=C\c1ccccc1`, the result was inactive.
The same measure, in the same setting: with `CN1C(=Nc2ccccc2)SC1=Nc1ccccc1` the entry was “inactive”; with `O=c1oc2ccccc2c(O)c1C1c2c(c3ccccc3oc2=O)Oc2c1c(=O)oc1ccccc21`, “inactive”.
`O=C1Nc2ccc(Cl)cc2C(=O)N2CCC[C@@H]12`: the pEC50 is less than 3.70 and the pIC50 was less than 3.70.
As to `Cc1ccc(S(=O)(=O)N/N=C2/C3C(CC2(C)C)C2(C)CCCC3(C)C2O)cc1` (stereo not drawn), the pEC50 was less than 3.70 and the pIC50 was less than 3.70.
Turning to `NC(N)=NNCCOc1c(Cl)cccc1Cl`, the pEC50 is less than 3.70 and the pIC50 is 4.04.
For `COCOc1ccc(Cn2c(=O)n(C)c(=O)c3c2ncn3C)cc1[N+](=O)[O-]`, the pEC50 was less than 4.30 and the pIC50 is less than 4.30.
For the compound `CC1=C(/C=C/C(C)=C/C2CC(N(C)C)=CC(=O)O2)C(C)(C)CCC1` (stereo not drawn), the result was inactive.
Consider `CC1(C)CN2Cc3cccc(n3)CN(CC(C)(C)[N-]C(=O)C(C)(OCc3ccccc3)C2)CC(C)(OCc2ccccc2)C(=O)[N-]1.[Cu+2]` (stereo not drawn), for which the pEC50 was less than 3.70 and the pIC50 was 3.93.
`CCOC(=O)CCC(NC(=O)c1ccc(Oc2nc3ccccc3nc2C(=O)OCC)cc1)C(=O)OCC` (stereo not drawn): the pEC50 is less than 3.70 and the pIC50 is less than 3.70.
With `CC(C)OP(=O)(CN(C)/C(F)=N\C(F)(F)F)OC(C)C`, the pEC50 is less than 3.70 and the pIC50 is less than 3.70.
For `Cc1cccc(C(C)C)c1NC(=O)CC1Sc2ccccc2NC1=O` (stereo not drawn), the pEC50 was less than 4.69.
`c1ccc2[nH]c(-c3cscn3)nc2c1`: the pEC50 was less than 3.70 and the negative logarithm of the IC50 (pIC50) is less than 3.70.
`CCOC(=O)C1=C(C)/C(=C\c2[nH]c(C)c(C(=O)OCC)c2C)N=C1C`: the pEC50 was less than 3.70 and the pIC50 was less than 3.70.
For `Cc1ccc(S(=O)(=O)N(C=O)N=C2CCN(Cc3ccccc3)CC2)cc1`, the pEC50 was less than 4.21 and the pIC50 was less than 4.21.
For the compound `O=C1C(c2ccccc2)=[N+]([O-])c2ccccc21`, the outcome was inactive.
Take `COc1cc(C(=C2SCCS2)c2nccc3cc(OC)c(OC)cc23)c([N+](=O)[O-])cc1OC`: the outcome was inactive.
In the case of `O=[N+]([O-])c1ccc(C2CC(c3ccccc3)=Nc3ccccc3S2)cc1` (stereo not drawn), the pEC50 is less than 4.45 and the pIC50 is 5.24.
Consider `Cn1c(NNc2ccccc2)cc(=O)[nH]c1=O`, for which the pEC50 was less than 3.70 and the pIC50 was 4.54.
The matching figures for `Cn1cc(B(O)O)c(=O)[nH]c1=O`: less than 3.70 and less than 3.70.
In the case of `CCc1ccc(Cc2ccc(CC)c(NC(=O)C(=O)Cc3nc4ccccc4nc3C)c2CC)c(CC)c1NC(=O)C(=O)Cc1nc2ccccc2nc1C`, the pEC50 was less than 4.87 and the pIC50 is less than 4.87.
